According to patent US20120020915A1, “Compounds and Methods for Treating Cancer and Diseases of the Central Nervous System” (QUEENS UNIVERSITY AT KINGSTON, priority 2007, published 2012):
Entries after “also recorded” stand apart in the source; their conditions may differ.

Assays:
[1] = target: T1, HO-1 (rat spleen) (Rattus norvegicus, UniProt P06762); experiment: HO enzymatic activity, rat spleen microsomal fraction (CO formation from methemalbumin); format: biochemical; conditions: CO formation from methemalbumin, mean ± SD of replicate experiments, read-out: IC50 HO-1 (rat spleen/μM)
T1 construct: Spleen microsomes were used as a source of HO-1; from tissue; host or cells: spleen microsomal fraction of adult male Sprague-Dawley rats
T1 sequence (P06762 1-289): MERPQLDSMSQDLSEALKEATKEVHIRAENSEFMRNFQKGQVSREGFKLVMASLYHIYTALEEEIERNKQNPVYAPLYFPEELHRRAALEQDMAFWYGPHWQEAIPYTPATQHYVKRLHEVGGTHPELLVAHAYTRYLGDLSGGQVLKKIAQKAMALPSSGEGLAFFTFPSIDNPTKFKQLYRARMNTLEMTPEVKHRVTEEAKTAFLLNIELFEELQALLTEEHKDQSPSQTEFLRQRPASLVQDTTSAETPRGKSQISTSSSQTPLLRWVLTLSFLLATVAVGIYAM

[2] = test system: human pancreatic tumor cells; experiment: Cell proliferation assay ([3H] thymidine incorporation), pancreatic tumor cells; format: cell-based; conditions: 6.5 μM, 18 h
[3] = test system: CD31-positive vessels in SKMEL-V+ tumors; experiment: CD31 immunohistochemistry / microvessel density of SKMEL-V+ tumors; format: in vivo, Mouse (Mus musculus), male SCID; conditions: QC-56 particularly at 60 mg/kg, hydrochloride, 60 mg/kg
Protocol: Cell cultures were maintained in 5% CO2/95% air at 37° C. SKMEL-V (human melanoma cells). SKMEL-V cells were derived from SKMEL-24 cells (ATCC) by overexpression of mouse VEGF. […] Tumors were either snap frozen in liquid nitrogen or fixed in 10% buffered formalin and embedded in paraffin. […] BD PharMingen, San Diego, Calif.). […] Sections were rehydrated in PBS and then blocked with 5% normal goat serum for 1 h. The sections were then incubated overnight at 4° C. with CD31 antibody diluted 1:25 in 3% BSA-PBS. […] Paraffin-embedded material was used for Harris' hematoxylin. Microvessel density was quantified using a method described by Weidner et al ([…], and Folkman […]. Med, 1991; 324:1-8). Briefly, randomly vascularized areas were selected (hot spots) under 40× field and 100× fields. Then a 400× field was used to count microvessels in each of these areas. Single endothelial cells or clusters of endothelial cells with or without lumen were considered to be individual vessels. […] All slides were examined blindly with no prior knowledge of the treatment status.

[4] = test system: SKMEL-V human melanoma cells; experiment: Human melanoma model SKMEL-V+ in SCID mice (pilot study), tumor growth; format: in vivo, Mouse (Mus musculus); SCID
Text: Human melanoma cells (“SKMEL-V cells”) were derived from SKMEL-24 cells (ATCC) by over expression of mouse VEGF.
Only those cells with >95% viability were used for in-viva studies.
Once tumors reached a size of approximately 0.7 cm^3, they were removed under sterile condition, sliced into small pieces under a stereo-microscope. Each tissue piece was then re-inoculated subcutaneously. Only pieces of approximately the same size and with no signs of necrosis were used.
All data in this study are presented as mean±SE. Statistical analyses were performed by one-way ANOVA followed by Newman-Keuls post-hoc comparisons to assess significant main effects within groups. Statistical significance was set at p<0.05.

Row | IC50 [1] | Compound | 3H-thymidine incorporation, non-transfected cells ([2]; compared to untreated cells, hydrochloride) | 3H-thymidine incorporation, hHO-1 transfected cells ([2]; hHO-1 transfected human pancreatic tumor cells) | vessel count / tumor vascularization (CD31) [3] | tumor volume compared with vehicle alone ([4]; 30 mg/kg (P<0.03)) | tumor volume compared with vehicle alone ([4]; 60 mg/kg (P<0.02))
1 | 6 ± 3 µM | Cl.FC[C@@H]1CO[C@@](CCc2ccc(Cl)cc2)(Cn2ccnc2)O1 [QC-47, (2R,4S)-1-{2-[2-(4-Chlorophenyl)ethyl]-4-fluoromethyl-[1,3]dioxolan-2-ylmethyl}-1H-imidazole hydrochloride] |  |  |  |  | 
2 |  | Brc1ccc(CCC2(Cn3ccnc3)OCCO2)cc1.Cl [QC-56, 1-((2-(2-(4-Bromophenyl)ethyl)-1,3-dioxolan-2-yl)methyl)-1H-imidazole hydrochloride] | significantly attenuated ^3H-thymidine incorporation; also recorded: marked reduction in the rate of cellular proliferation | significantly attenuated the effects of hHO-1 transfection on ^3H-thymidine incorporation | significant decrease in the size and number of blood vessels | statistically significantly smaller | statistically significantly smaller
